Assay results taken from US20260055096A1, “AZOLE PESTICIDAL COMPOUNDS” (BASF SE, priority 2022, published 2026).

Legend:
Type in all cases: in vivo
[1] = test system: Orchid thrips (Dichromothrips corbetti); assay: Example B.2: Action on orchid thrips (Dichromothrips corbetti), floral-immersion technique; conditions: 72 hours after treatment, read-out: mortality in comparison with untreated controls
Procedure: Dichromothrips corbetti adults used for bioassay were obtained from a colony maintained continuously under laboratory conditions. For testing purposes, the test compound is diluted in a 1:1 mixture of acetone:water (vol:vol), plus Kinetic® HV at a rate of 0.01% v/v.
Thrips potency of each compound was evaluated by using a floral-immersion technique. All petals of individual, intact orchid flowers were dipped into treatment solution and allowed to dryin Petri dishes. Treated petals were placed into individual re-sealable plastic along with about 20 adult thrips. All test arenas were held under continuous light and a temperature of about 28° C. for duration of the assay. After 3 days, the numbers of live thrips were counted on each petal. The percent mortality was recorded 72 hours after treatment.

[2] = test system: yellow fever mosquito (Aedes aegypti); assay: whole plant or invertebrate; conditions: 48 h, larval mortality after 2 days, read-out: mortality in comparison with untreated controls
Procedure: For evaluating control of yellow fever mosquito (Aedes aegypti) the test unit consisted of 96-well-microtiter plates containing 200 μl of tap water per well and 5-15 freshly hatched A. aegypti larvae.
The active compounds or mixtures were formulated using a solution containing 75% (v/v) water and 25% (v/v) DMSO. Different concentrations of formulated compounds or mixtures were sprayed onto the insect diet at 2.5 μl, using a custom-built micro atomizer, at two replications.
For experimental mixtures in these tests identical volumes of both mixing partners at the desired concentrations respectively, were mixed together.
After application, microtiter plates were incubated at 28 #1° C., 80 #5% RH for 2 days. Larval mortality was then visually assessed.

[3] = test system: tobacco budworm (Heliothis virescens); assay: Example B.5: Action on tobacco budworm (Heliothis virescens), egg and larval mortality on insect diet; conditions: 120 h, egg and larval mortality after 5 days, read-out: mortality in comparison with untreated controls
Procedure: For evaluating control of tobacco budworm (Heliothis virescens) the test unit consisted of 96-well-microtiter plates containing an insect diet and 15-25 H. virescens eggs.
The compounds were formulated using a solution containing 75% v/v water and 25% v/v DMSO. Different concentrations of formulated compounds were sprayed onto the insect diet at 10 μl, using a custom-built micro atomizer, at two replications.
After application, microtiter plates were incubated at about 28±1C and about 80±5% relative humidity for 5 days. Egg and larval mortality were then visually assessed.

[4] = test system: Silverleaf whitefly (Bemisia argentifolii) (adults); assay: Example B.4: Action on silverleaf whitefly (Bemisia argentifolii) adults on sprayed cotton plants; conditions: 72 h, 3 days after treatment, read-out: mortality in comparison with untreated controls
Procedure: (§1) The active compounds were formulated by a Tecan liquid handler in 100% cyclohexanone as a 10,000-ppm solution supplied in tubes. The 10,000-ppm solution was serially diluted in 100% cyclohexanone to make interim solutions. These served as stock solutions for which final dilutions were made by the Tecan in 50% acetone:50% water (v/v) into 5 or 10 ml glass vials. A nonionic surfactant (Kinetic®) was included in the solution at a volume of 0.01% (v/v). The vials were then inserted into an automated electrostatic sprayer equipped with an atomizing nozzle for application to plants/insects.
Cotton plants at the cotyledon stage (one plant per pot) were sprayed by an automated electrostatic plant sprayer equipped with an atomizing spray nozzle. The plants were dried in the sprayer fume hood and then removed from the sprayer. Each pot was placed into a plastic cup and about 10 to 12 whitefly adults (approximately 3-5 days old) were introduced. The insects were collected using an aspirator and a nontoxic Tygon® tubing connected to a barrier pipette tip. The tip, containing the collected insects, was then gently inserted into the soil containing the treated plant, allowing insects to crawl out of the tip to reach the foliage for feeding. Cups were covered with a reusable screened lid. […] Mortality was assessed 3 days after treatment, compared to untreated control plants.

[5] = test system: Southern armyworm (Spodoptera eridania), 2nd instar larvae; assay: Example B.7: Action on southern armyworm (Spodoptera eridania), 2nd instar larvae on sprayed lima bean plants; conditions: 96 h, 4 days after treatment, read-out: mortality in comparison with untreated controls
Procedure: as §1, with “into 10” for “into 5”, “or 20” for “or 10”
Lima bean plants (variety Sieva) were grown 2 plants to a pot and selected for treatment at the 1st true leaf stage. Test solutions were sprayed onto the foliage by an automated electrostatic plant sprayer equipped with an atomizing spray nozzle. The plants were dried in the sprayer fume hood and then removed from the sprayer. Each pot was placed into perforated plastic bags with a zip closure. About 10 to 11 armyworm larvae were placed into the bag and the bags zipped closed. Test plants were maintained in a growth room at about 25° C. and about 20-40% relative humidity for 4 days, avoiding direct exposure to fluorescent light (24-hour photoperiod) to prevent trapping of heat inside the bags. Mortality and reduced feeding were assessed 4 days after treatment, compared to untreated control plants.

[6] = test system: Diamond back moth (Plutella xylostella); assay: Example B.6: Action on diamond back moth (Plutella xylostella), cabbage leaf dip, 3rd instar larvae; conditions: foliar, 72 hours after treatment, read-out: mortality in comparison with untreated controls
Procedure: The active compound is dissolved at the desired concentration in a mixture of 1:1 (v/v) distilled water: acetone. Surfactant (Kinetic® HV) is added at a rate of 0.01% (v/v). The test solution is prepared at the day of use.
Leaves of cabbage were dipped in test solution and air-dried. Treated leaves were placed in petri dishes lined with moist filter paper and inoculated with ten 3rd instar larvae. Mortality was recorded 72 hours after treatment. Feeding damages were also recorded using a scale of 0-100%.

[7] = test system: boll weevil (Anthonomus grandis); assay: Example B.3: Action on boll weevil (Anthonomus grandis), egg and larval mortality on insect diet; conditions: 120 h, egg and larval mortality after 5 days, read-out: mortality in comparison with untreated controls
Procedure: For evaluating control of boll weevil (Anthonomus grandis) the test unit consisted of 96-well-microtiter plates containing an insect diet and 5-10 A. grandis eggs.
The compounds were formulated using a solution containing 75% (v/v) water and 25% (v/v) DMSO. Different concentrations of formulated compounds were sprayed onto the insect diet at […], using a custom-built micro atomizer, at two replications.
After application, microtiter plates were incubated at about 25±1C and about 75±5% relative humidity for 5 days. Egg and larval mortality were then visually assessed.

Cc1ccc(C(C)C)c(N2C(=O)CS/C2=N\C(=O)Nc2ccc(-c3nc(NC(=O)c4ccc(OC(F)(F)F)cc4)n(C)n3)cc2Cl)c1 [Example C-6, N-[5-[3-chloro-4-[[(Z)-[3-(2-isopropyl-5-methyl-phenyl)-4-oxo-thiazolidin-2-ylidene]carbamoyl]amino]phenyl]-2-methyl-1,2,4-triazol-3-yl]-4-(trifluoromethoxy)benzamide]
≥ 75%: mortality at 300 ppm [1] | mortality at 800 ppm [3] | mortality at 300 ppm [4] | mortality at 300 ppm [5] | mortality at 300 ppm [6] | mortality at 800 ppm [7]
≥ 50%: mortality at 800 ppm [2]
